Target: P450 19A1 (aromatase) (Homo sapiens, UniProt P11511)
Assay: competitive ABPP: blockade of probe […] labeling, in-gel fluorescence
Assay type: biochemical

Sequence of P450 19A1 (aromatase) (P16435 2-677): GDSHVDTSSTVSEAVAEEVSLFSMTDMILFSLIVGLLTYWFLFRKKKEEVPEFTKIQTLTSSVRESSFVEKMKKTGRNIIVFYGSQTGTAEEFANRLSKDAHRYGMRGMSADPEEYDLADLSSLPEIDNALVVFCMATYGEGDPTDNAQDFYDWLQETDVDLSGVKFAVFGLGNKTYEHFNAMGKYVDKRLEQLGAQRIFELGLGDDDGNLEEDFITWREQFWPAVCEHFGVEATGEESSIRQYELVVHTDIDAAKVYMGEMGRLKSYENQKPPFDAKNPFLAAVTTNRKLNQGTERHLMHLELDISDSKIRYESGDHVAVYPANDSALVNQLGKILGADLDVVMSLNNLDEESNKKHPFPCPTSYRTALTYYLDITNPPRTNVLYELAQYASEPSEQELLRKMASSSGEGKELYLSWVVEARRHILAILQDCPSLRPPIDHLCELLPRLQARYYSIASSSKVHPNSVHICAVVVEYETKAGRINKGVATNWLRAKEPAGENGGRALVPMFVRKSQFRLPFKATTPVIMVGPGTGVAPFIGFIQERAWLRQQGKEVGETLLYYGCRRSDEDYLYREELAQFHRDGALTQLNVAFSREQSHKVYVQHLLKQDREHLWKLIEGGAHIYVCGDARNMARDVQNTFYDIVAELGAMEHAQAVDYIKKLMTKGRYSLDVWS
Sequence of P450 19A1 (aromatase) (P11511 whole entry): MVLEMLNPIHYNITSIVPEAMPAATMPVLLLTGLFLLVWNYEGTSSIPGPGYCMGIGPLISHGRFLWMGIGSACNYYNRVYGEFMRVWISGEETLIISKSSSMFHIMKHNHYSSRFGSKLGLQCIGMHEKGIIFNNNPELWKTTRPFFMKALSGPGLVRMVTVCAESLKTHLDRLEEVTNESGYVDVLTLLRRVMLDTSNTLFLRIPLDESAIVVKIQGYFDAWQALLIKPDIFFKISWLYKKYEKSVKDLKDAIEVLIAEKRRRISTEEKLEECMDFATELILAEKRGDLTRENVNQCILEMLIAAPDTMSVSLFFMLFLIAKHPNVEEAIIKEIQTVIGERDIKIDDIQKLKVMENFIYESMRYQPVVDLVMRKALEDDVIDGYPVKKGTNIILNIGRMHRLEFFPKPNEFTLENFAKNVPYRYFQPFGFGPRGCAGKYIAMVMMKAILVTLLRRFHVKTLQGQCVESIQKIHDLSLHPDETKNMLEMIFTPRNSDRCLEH

Work on C[C@]12CCC(=O)C(O)=C1CC[C@@H]1[C@@H]2CC[C@]2(C)C(=O)CC[C@@H]12 [formestane] yielded an IC50 of 430 nM.
